Measurements: patent US10500222B2, “Compositions and methods relating to treatment of infection” (Wayne State University, priority 2015, dated 2019)
Entries after “also recorded” stand apart in the source; their conditions may differ.

What was measured:
Format in all cases: in vivo, C57BL/6 (B6) mice
P. aeruginosa KEI 1025 = experiment: Quantification of viable bacteria (plate count), KEI 1025 infection; settings: pretreatment subconj. + IP, vs PBS
Protocol: (§1) The left eyes of B6 mice (n=5/group/time) were injected with 5 μl of 2 μg/μl glycyrrhizin (GLY) (Sigma-Aldrich, St. Louis, Mo.) or PBS (control) subconjunctivally, one day before infection. Similar treatment was done using carbenoxolone (CBX) (Sigma-Aldrich, St. Louis, Mo.). All mice were injected intraperitoneally (IP) at 1 and 3 days p.i. with 100 μl of GLY (2 μg/μl) or CBX (1 μg/μl). PBS served as control for all these experiments. In a separate similar experiment mice were treated one day before infection with GLY subconjunctivally and injected intraperitoneally (i.p.) with GLY plus recombinant (r) HMGB1 (1 μg/100 μl) or GLY plus PBS. IP injections were similarly given at 1 and 3 days p.i. In an additional experiment, KEI 1025 infected B6 mice were treated with 5 μl of 2 μg/μl GLY subconjunctivally at 6 hours p.i. and injected intraperitoneally at 1 and 3 days p.i. with 100 μl of GLY (2 μg/μl).
Mice were sacrificed at 3 and 5 days p.i. and KEI 1025 or ATCC strain 19660 infected corneas from GLY, CBX or PBS (or GLY+/−rHMGB1) treated B6 mice were harvested (n=5/group/time). Each cornea was homogenized in 1 ml of sterile saline (0.85% NaCl, pH 7.4) containing 0.25% BSA. A 100 μl of the corneal homogenate was serially diluted (1:10) in sterile saline containing 0.25% BSA. Selected dilutions were plated in triplicate on selective culture medium (Difco™ Pseudomonas Isolation Agar, BD Biosciences, Inc., Franklin Lakes, N.J.). Plates were incubated overnight at 37° C. and viable bacteria manually counted. Results are reported as log10 CFU/cornea±SEM.

[1] = test system: mRNA levels in P. aeruginosa KEI 1025 infected cornea; experiment: Real time RT-PCR of cornea, KEI 1025 infection
Protocol: as §1
KEI 1025 or ATCC strain 19660 infected GLY or PBS treated mice were sacrificed at 5 days p.i. and the normal, contralateral (uninfected) and infected cornea was harvested. For each cornea, total RNA was isolated (RNA STAT-60™; Tel-Test, Friendswood, Tex.) according to the manufacturer's instructions. Upon spectrophotometric quantification at 260 nm, 1 μg of each RNA sample was reverse transcribed using Moloney-murine leukemia virus (M-MLV) reverse transcriptase (Invitrogen, Carlsbad, Calif.) to produce a cDNA template for the PCR reaction. cDNA products were diluted 1:25 with diethylpyrocarbonate (DEPC)-treated water. A 2 μl aliquot of diluted cDNA was used for the real-time RT-PCR reaction with Real-Time SYBR® Green/Fluorescein PCR Master Mix (Bio-Rad) and primer concentrations of 10 μM (total 10 μl reaction volume). After a pre-programmed hot start cycle (3 min at 95° C.), the parameters used for PCR amplification were: 15 sec at 95° C. and 60 sec at 60° C. with the cycles repeated 45 times. Optimal conditions for PCR amplification of cDNA were established using routine methods. mRNA levels of HMGB1, RAGE, IL-1β, TLR2, TLR4, CXCL2, TNF-α, NLR family pyrin domain containing 3 (NLRP3), NLR family CARD domain containing 4 (NLRC4), IL-12, TGF-β, IL-10, single Ig IL-1-related receptor (SIGIRR) and interleukin 1 receptor-like 1 (ST2) were tested by real-time RT-PCR (CFX Connect™ Real-Time PCR Detection System; Bio-Rad, Richmond, Calif.). The fold differences in gene expression were calculated after normalization to β-actin and expressed as the relative mRNA concentration+SEM.

[2] = test system: P. aeruginosa KEI 1025 infected cornea; experiment: Ocular response to bacterial infection (clinical score, slit lamp), KEI 1025 keratitis; settings: subconj. 1 day before infection + IP 1 and 3 days p.i., vs PBS
Text: P. aeruginosa strains, KEI 1025, a non-cytotoxic clinical isolate strain expressing exoT and exoS, and not expressing exoU, described in Estrellas P S, Jr., et al., Curr Eye Res. 2000; 20:157-165 (obtained from Kresge Eye Institute, Detroit, Mich.), and a cytotoxic strain, 19660, expressing exoU, described in Finck-Barbancon V, et al., Mol Microbiol. 1997; 25:547-557; and Fleiszig S M, et al., Infect Immun. 1997; 65:579-586 (obtained from American Type Culture Collection, ATCC, Manassas, Va.), were grown in peptone tryptic soy broth (PTSB) medium in a rotary shaker water bath at 37° C. and 150 rpm for 18 h to an optical density (measured at 540 nm) between 1.3-1.8. Bacterial cultures were pelleted by centrifugation at 5,500 g for 10 min. Pellets were washed once with sterile saline, re-centrifuged, re-suspended and diluted in sterile saline. Anesthetized (using anhydrous ethyl ether) mice were placed beneath a stereoscopic microscope at 40× magnification. The left cornea was scarified with three 1-mm incisions using a sterile 25^5/8 gauge needle. The wounded corneal surface was topically treated with 5 μl containing 1×10^7 CFU/μl (KEI 1025) or 1×10^6 CFU/μl (ATCC strain 19660) of the P. aeruginosa suspension.
An established corneal disease grading scale, described in detail in Hazlett L D, et al., Invest Ophthalmol Vis Sci. 1987; 28:1978-1985, was used to assign a clinical score value to each infected eye at 1, 3 and 5 days post infection (p.i.). Clinical scores were designated as: 0=clear or slight opacity, partially or fully covering the pupil; +1=slight opacity, fully covering the anterior segment; +2=dense opacity, partially or fully covering the pupil; +3=dense opacity, covering the entire anterior segment; and +4=corneal perforation or phthisis. Clinical scores were used to statistically compare disease severity and were accompanied by photographs using a slit lamp (5 days p.i.) to confirm and illustrate the response.
as §1

[3] = KEI 1025, pretreatment subconj. + IP, infected cornea 5 days p.i., vs PBS

With `CC1(C)[C@@H](OC(=O)CCC(=O)O)CC[C@]2(C)[C@H]3C(=O)C=C4[C@@H]5C[C@@](C)(C(=O)O)CC[C@]5(C)CC[C@@]4(C)[C@]3(C)CC[C@@H]12` [CBX, carbenoxolone] the “bacterial load in the corneas (plate count)” value (P. aeruginosa KEI 1025; 3 days p.i.) was “not at 3 days p.i”, the “bacterial load in the corneas (plate count)” value (P. aeruginosa KEI 1025; 5 days p.i.) was “significantly reduced” and the “CXCL2 mRNA levels” value [1, 3] was “reduced”. The “HMGB1 mRNA levels” value [1, 3] was “no difference”, the “IL-1β mRNA levels” value [1, 3] was “significantly reduced” and the “IL-12 mRNA levels” value [1, 3] was “only GLY reduced”. The “NLRC4 mRNA levels” value [1, 3] was “only GLY reduced”, the “NLRP3 mRNA levels” value [1, 3] was “reduced” and the “SIGIRR mRNA levels” value [1, 3] was “increased modestly”. For the same compound, the “TGF-β mRNA levels” value [1, 3] was “reduced”, the “TLR2 mRNA levels” value [1, 3] was “did not differ from PBS controls” and the “TLR4 mRNA” value [1, 3] was “reduced”. For the same compound, the “TNF-α mRNA levels” value [1, 3] was “reduced by both GLY and CBX, but only GLY (p<0.01) was significant”, the “mRNA levels of the other molecules tested” value ([1]; normal (uninfected) corneas, among PBS, CBX, GLY groups) was “no differences” and the clinical scores ([2]; 3 days p.i.) was “statistically significant reduction in disease scores; also recorded: only reduced at 3 days”. For the same compound, the clinical scores ([2]; 5 days p.i.) was “not at 5 (p=0.2) days p.i” and the “opacity, slit lamp photographs” value ([2]; 5 days p.i.) was “reduced opacity”.
